Measured values published in patent publication US20240197604A1, “COMPOUNDS WITH COOLING SENSATION PROPERTIES” (Givaudan SA, priority 2021, published 2024).

Legend:
hTRPM8 = biological target: T1, hTRPM8 (Homo sapiens, UniProt Q7Z2W7); assay: Assay on TRPM8 modulators: calcium imaging (Fluo-4, Flexstation 3) in HEK293 cell line stably expressing hTRPM8; type: cell-based; settings: HEK293 cells stably expressing hTRPM8; Fluo-4 calcium imaging; sigmoidal dose-response fit; read-out: EC50 value (TRPM8 agonist, calcium influx)
T1 construct: expressed in transfected cells
T1 sequence (Q7Z2W7 whole entry): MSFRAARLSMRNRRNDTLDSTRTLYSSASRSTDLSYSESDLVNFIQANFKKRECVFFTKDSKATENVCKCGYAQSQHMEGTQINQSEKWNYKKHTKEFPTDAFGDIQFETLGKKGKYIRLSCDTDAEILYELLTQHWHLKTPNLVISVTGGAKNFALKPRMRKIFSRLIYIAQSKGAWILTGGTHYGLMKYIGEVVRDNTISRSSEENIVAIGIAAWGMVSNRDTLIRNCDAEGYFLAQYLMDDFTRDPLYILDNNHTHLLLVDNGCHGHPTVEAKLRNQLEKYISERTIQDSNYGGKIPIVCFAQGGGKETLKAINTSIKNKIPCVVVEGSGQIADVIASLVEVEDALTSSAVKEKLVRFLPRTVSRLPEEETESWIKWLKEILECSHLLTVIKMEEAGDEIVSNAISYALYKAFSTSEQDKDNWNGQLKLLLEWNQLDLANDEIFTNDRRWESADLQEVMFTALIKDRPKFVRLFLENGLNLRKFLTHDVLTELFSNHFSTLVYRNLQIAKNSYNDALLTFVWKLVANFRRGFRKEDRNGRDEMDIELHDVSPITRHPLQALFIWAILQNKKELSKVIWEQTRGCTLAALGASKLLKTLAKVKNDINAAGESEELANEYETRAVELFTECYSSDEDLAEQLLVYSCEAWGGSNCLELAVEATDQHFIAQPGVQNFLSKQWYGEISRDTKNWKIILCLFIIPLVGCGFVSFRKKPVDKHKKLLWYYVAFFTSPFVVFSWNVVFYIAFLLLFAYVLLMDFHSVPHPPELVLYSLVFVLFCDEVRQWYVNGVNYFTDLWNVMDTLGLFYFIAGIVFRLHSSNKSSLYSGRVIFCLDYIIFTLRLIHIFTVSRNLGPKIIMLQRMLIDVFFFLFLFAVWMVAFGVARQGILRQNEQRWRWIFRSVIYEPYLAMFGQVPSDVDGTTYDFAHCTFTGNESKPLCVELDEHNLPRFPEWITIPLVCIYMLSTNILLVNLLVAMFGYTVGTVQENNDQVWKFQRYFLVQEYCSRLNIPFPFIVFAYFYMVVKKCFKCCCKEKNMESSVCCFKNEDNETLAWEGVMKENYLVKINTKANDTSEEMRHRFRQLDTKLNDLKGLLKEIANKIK
Method: A HEK293 cell line stably expressing hTRPM8 was generated according to Klein et al., (Chem. Senses 36: 649-658, 2011) and receptor activation was monitored by calcium imaging in a Flexstation. For Ca-imaging assays of TRPM8 channel activation, cells were seeded on day 0 at a density of 12000 cells per well in Dulbecco's modified Eagle medium (DMEM) containing 9% foetal bovine serum in black, clear bottom 96-well plates that had been coated with 0.001% polyethyleneimine (molecular weight=60 000, Acros Organics). On day 2, agonists were evaluated via calcium imaging using Fluo-4. Briefly, growth medium was discarded, and the cells were incubated in the dark for 1 h at 37° C. in 50 μL loading buffer consisting of 2.7 μM Fluo-4 AM (Invitrogen) and […] probenecid (Sigma-Aldrich) in DMEM (without serum). […] The cells were then washed five times with 100 μL assay buffer and then calcium influx to serial dilutions of 2-(1-(2-(methylthio)propanoyl)piperidin-2-yl)-5-(p-tolyl)-1H-imidazolium carboxyformate was measured in a Flexstation 3 (Molecular Devices). […] Fluorescence was continuously monitored for 15 seconds prior to ligand addition and for 105 seconds after ligand addition, for a total of 120 seconds. Maximal receptor activation in relation to solvent control and relative to 31.6 μM menthol is determined. […]

[1] = Sensory evaluation in model dentifrice by a panel of trained flavourists; type: in vivo, human; settings: 10 ppm in unflavored model dentifrice, brushing with 1 g for 60 seconds, no rinsing
Method: The oxalate of 2-(methylthio)-1-(2-(5-(p-tolyl)imidazol-2-yl)piperidin-1-yl)propan-1-one (prepared according to Example 1d) was dissolved at a concentration of 1 wt-% in propylene glycol. This solution was then dispersed in an appropriate quantity to obtain the desired final concentration of 10 ppm (parts per million) of the test compound into a model, unflavored dentifrice, the formula of which is given below (ingredients obtained from the suppliers respectively indicated in parenthesis).
A panel of trained flavourists evaluated the dentifrice containing the oxalate, by brushing their teeth with 1 g of the dentifrice using a toothbrush for 60 seconds, followed by spitting, without rinsing the mouth afterwards for the duration of the evaluation. The flavourists evaluated and recorded the cooling performance as well as other sensorial and organoleptic attributes at different time-points over a period of 90 minutes. The following tasting notes were recorded: Good coolant. Clean, with a pleasant, mild tingling effect. Active in all areas of the mouth.

- EC50 (hTRPM8): < 10 nM
Compound: CSC(C)C(=O)N1CCCCC1c1ncc(-c2ccc(C)cc2)[nH]1.O=C(O)C(=O)O (stereo not shown) [Example 1d, 2-(1-(2-(methylthio)propanoyl)piperidin-2-yl)-5-(p-tolyl)-1H-imidazolium carboxyformate]
- onset of cooling effect (tasting notes) [1]: Fast acting (upfront cooling) with effect perceived already during brushing
- cooling performance (tasting notes) ([1]; evaluated over 90 minutes): Good coolant
- longevity of cooling effect (tasting notes) ([1]; evaluated over 90 minutes): Strong cooling peak with long-lasting effect up to one hour
